Test results taken from patent US4265904A, “Prostacyclin analogs of the 1 series and related analogs” (American Cyanamid Company, priority 1979, dated 1981).

Key:
Assay type in all cases: in vivo, guinea pigs
[1] = system: bronchospasms elicited by histamine; experiment: Bronchodilator activity against bronchospasm elicited by intravenous histamine, Konzett procedure; settings: Cavia porcellus; guinea pig, histamine spasmogen, three logarithmic cumulative intravenous doses
Method: (§1) The compounds of this invention are useful as bronchodilators for the treatment of asthma and chronic bronchitis. Bronchodilator activity is determined in guinea pigs against bronchospasms elicited by intravenous injections of 5-hydroxytryptamine, histamine or acetylcholine by the Konzett procedure. [See J. Lulling, P. Lievens, F. El Sayed and J. Prignot, Arzneimittel-Forschung, 18, 995 (1968).]
(§2) In Table which follows bronchodilator activity for representative compounds of this invention against one or more of three spasmogenic agents is expressed as an ED50 determined from the results obtained with three logarithmic cummulative intravenous doses. In this assay, these compounds of this invention provide an effect of longer duration than does natural l-PGE1 or l-PGE2.

[2] = system: bronchospasms elicited by acetylcholine; experiment: Bronchodilator activity against bronchospasm elicited by intravenous acetylcholine, Konzett procedure; settings: Cavia porcellus; guinea pig, acetylcholine spasmogen, three logarithmic cumulative intravenous doses
Method: as §1, §2

[3] = system: bronchospasms elicited by 5-hydroxytryptamine; experiment: Bronchodilator activity against bronchospasm elicited by intravenous 5-hydroxytryptamine, Konzett procedure; settings: Cavia porcellus; guinea pig, 5-hydroxytryptamine spasmogen, three logarithmic cumulative intravenous doses; read-out: ED50 5HT
Method: as §1, §2

SMILES: CCCCC(C)(O)C/C=C/[C@@H]1[C@H]2CC(C(I)CCCC(=O)OC)O[C@H]2C[C@H]1O (relative stereo) [dl 11α,16-Dihydroxy-6,9α-epoxy-5-iodo-16-methyl-13-trans-prostenoic acid methyl ester]
- ED50 [1]: 0.0069 mg/kg
- ED50 [2]: 0.0065 mg/kg
- ED50 [3]: 0.004 mg/kg

SMILES: C=CC(O)(C/C=C/[C@@H]1[C@H]2CC(CCCCC(=O)CO)O[C@H]2C[C@H]1O)CCCC (relative stereo) [11a, 16-Dihydroxy-6,9a (epoxy)-1-hydroxymethyl-1-oxo-16-vinyl-13-trans-prostene]
- ED50 [1]: 0.00146 mg/kg
- ED50 [2]: 0.0032 mg/kg
- ED50 [3]: 0.0276 mg/kg

SMILES: C=CC(O)(C/C=C/[C@@H]1[C@H]2CC(CCCCC(=O)OC)O[C@H]2C[C@H]1O)CCCC (relative stereo) [dl 11α,16-Dihydroxy-6,9α-epoxy-16-vinyl-13-trans-prostenoic acid methyl ester]
- ED50 [1]: 0.0254 mg/kg
- ED50 [2]: 0.0491 mg/kg
- ED50 [3]: 0.0367 mg/kg

SMILES: CCCCC(C)(O)C/C=C/[C@@H]1[C@H]2CC(CCCCC(=O)OC)O[C@H]2C[C@H]1O (relative stereo) [dl 11α,16-Dihydroxy-6,9α-epoxy-16-methyl-13-trans-prostenoic acid methyl ester]
- ED50 [1]: 0.111 mg/kg
- ED50 [2]: 0.146 mg/kg
- ED50 [3]: 0.0925 mg/kg
